According to the SangsterLogP compilation:

Legend:
[1] = method code SF-HPLC, from DOI: 10.1080/10826079708014133; settings: pH 11.0

logD [1] | logP | Compound
2.25 |  | Cc1cccc(OCC2CN=C(N)O2)c1C (configuration not stated)
2.27 |  | CCc1ccc(OCC2CN=C(N)O2)cc1 (configuration not stated)
2 |  | Cc1cccc(C)c1OCC1CN=C(N)O1 (configuration not stated)
1.75 |  | Cc1cccc(OCC2CN=C(N)O2)c1 (configuration not stated)
2.1 |  | Cc1ccc(OCC2CN=C(N)O2)cc1C (configuration not stated)
 | 3.69 | CCC(C)(C)c1ccc(OCC2CN=C(N)O2)cc1 (configuration not stated)
2.8 |  | NC1=NCC(COc2ccc(-c3ccccc3)cc2)O1 (configuration not stated)

Second part, the compound before the results:

Compound | logD [1] | logP
Cc1ccc(C)c(OCC2CN=C(N)O2)c1 (configuration not stated) | 2.29 | 
Cc1ccc(OCC2CN=C(N)O2)c(C)c1 (configuration not stated) | 2.23 | 
NC1=NCC(COc2cccc(C(F)(F)F)c2)O1 (configuration not stated) | 2.35 | 
NC1=NCC(COc2cccc(Cl)c2)O1 (configuration not stated) | 2.09 | 
NC1=NCC(COc2ccccc2Cc2ccccc2)O1 (configuration not stated) |  | 3.05
